In patent US10213433B2 (AbbVie Inc., priority 2010, dated 2019) one finds Ki data, which are given here for 18 compounds.

Chain of Bcl-2 protein (P10415 whole entry): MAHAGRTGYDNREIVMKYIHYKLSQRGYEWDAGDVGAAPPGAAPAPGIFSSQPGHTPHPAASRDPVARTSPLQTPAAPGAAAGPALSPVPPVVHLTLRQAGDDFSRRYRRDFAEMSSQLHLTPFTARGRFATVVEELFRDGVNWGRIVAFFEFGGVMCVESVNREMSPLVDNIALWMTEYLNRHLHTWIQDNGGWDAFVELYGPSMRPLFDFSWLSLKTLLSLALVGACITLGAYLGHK

In the experiment the target is Bcl-2 protein (Homo sapiens (Human), UniProt P10415). The experiment can be described thus: Bcl-2 binding TR-FRET (Time-Resolved Fluorescence-Resonance-Energy-Transfer) assay. Particulars: inhibition constant for binding to Bcl-2 protein. The source says:
The smaller the Ki value, the greater is the binding affinity.
For orientation: TR-FRET usually uses a lanthanide donor and a delayed reading to cut background.
Turning to `CC1(C)CCC(CN2CCN(c3ccc(C(=O)NS(=O)(=O)c4ccc(NCC5CN(CC#N)CCO5)c([N+](=O)[O-])c4)c(Oc4cnc5[nH]ccc5c4)c3)CC2)=C(c2ccc(Cl)cc2)C1` (stereo not drawn) [Compound 214, 4-(4-{[2-(4-chlorophenyl)-4,4-dimethylcyclohex-1-en-1-yl]methyl}piperazin-1-yl)-N-{[4-({[4-(cyanomethyl)morpholin-2-yl]methyl}amino)-3-nitrophenyl]sulfonyl}-2-(1H-pyrrolo[2,3-b]pyridin-5-yloxy)benzamide], the Ki (in general, the equilibrium dissociation constant of an inhibitor or competing ligand from its target) was < 0.01 nM.

Regarding `CC1(C)CCC(CN2CCN(c3ccc(C(=O)NS(=O)(=O)c4cnc(NCC5CCOCC5)c([N+](=O)[O-])c4)c(Oc4cnc5[nH]ccc5c4)c3)CC2)=C(c2ccc(Cl)cc2)C1` [Compound 364, 4-(4-{[2-(4-chlorophenyl)-4,4-dimethylcyclohex-1-en-1-yl]methyl}piperazin-1-yl)-N-({5-nitro-6-[(tetrahydro-2H-pyran-4-ylmethyl)amino]pyridin-3-yl}sulfonyl)-2-(1H-pyrrolo[2,3-b]pyridin-5-yloxy)benzamide], the Ki is < 0.01 nM.

In the case of `CC1(C)CCC(CN2CCN(c3ccc(C(=O)NS(=O)(=O)c4ccc(NC5CCN(C6COC6)CC5)c([N+](=O)[O-])c4)c(Oc4cnc5[nH]ccc5c4)c3)CC2)=C(c2ccc(Cl)cc2)C1` [Compound 139, 4-(4-{[2-(4-chlorophenyl)-4,4-dimethylcyclohex-1-en-1-yl]methyl}piperazin-1-yl)-N-({3-nitro-4-[(1-oxetan-3-ylpiperidin-4-yl)amino]phenyl}sulfonyl)-2-(1H-pyrrolo[2,3-b]pyridin-5-yloxy)benzamide], the Ki was < 0.01 nM.

Regarding `CN(C)CC(=O)N1CC[C@@H](Nc2ccc(S(=O)(=O)NC(=O)c3ccc(N4CCN(CC5=C(c6ccc(Cl)cc6)CC(C)(C)CC5)CC4)cc3Oc3cnc4[nH]ccc4c3)cc2[N+](=O)[O-])C1` [Compound 255, 4-(4-{[2-(4-chlorophenyl)-4,4-dimethylcyclohex-1-en-1-yl]methyl}piperazin-1-yl)-N-[(4-{[(3R)-1-(N,N-dimethylglycyl)pyrrolidin-3-yl]amino}-3-nitrophenyl)sulfonyl]-2-(1H-pyrrolo[2,3-b]pyridin-5-yloxy)benzamide], the Ki was < 0.01 nM.

As to `CC1(C)CCC(CN2CCN(c3ccc(C(=O)NS(=O)(=O)c4ccc(NCCCN5CCOCC5)c([N+](=O)[O-])c4)c(Oc4cnc5[nH]ccc5c4)c3)CC2)=C(c2ccc(Cl)cc2)C1` [Compound 55, 4-(4-{[2-(4-chlorophenyl)-4,4-dimethylcyclohex-1-en-1-yl]methyl}piperazin-1-yl)-N-({4-[(3-morpholin-4-ylpropyl)amino]-3-nitrophenyl}sulfonyl)-2-(1H-pyrrolo[2,3-b]pyridin-5-yloxy)benzamide], the Ki is < 0.01 nM.

As for `CC1(C)CCC(CN2CCN(c3ccc(C(=O)NS(=O)(=O)c4ccc(N[C@@H]5CCN(S(C)(=O)=O)C5)c([N+](=O)[O-])c4)c(Oc4cnc5[nH]ccc5c4)c3)CC2)=C(c2ccc(Cl)cc2)C1` [Compound 149, 4-(4-{[2-(4-chlorophenyl)-4,4-dimethylcyclohex-1-en-1-yl]methyl}piperazin-1-yl)-N-[(4-{[(3R)-1-(methylsulfonyl)pyrrolidin-3-yl]amino}-3-nitrophenyl)sulfonyl]-2-(1H-pyrrolo[2,3-b]pyridin-5-yloxy)benzamide], the Ki is < 0.01 nM.

On to `CC1(C)CCC(CN2CCN(c3ccc(C(=O)NS(=O)(=O)c4ccc(NCC5CCN(C(CF)CF)CC5)c([N+](=O)[O-])c4)c(Oc4cnc5[nH]ccc5c4)c3)CC2)=C(c2ccc(Cl)cc2)C1` [Compound 172, 4-(4-{[2-(4-chlorophenyl)-4,4-dimethylcyclohex-1-en-1-yl]methyl}piperazin-1-yl)-N-({4-[({1-[2-fluoro-1-(fluoromethyl)ethyl]piperidin-4-yl}methyl)amino]-3-nitrophenyl}sulfonyl)-2-(1H-pyrrolo[2,3-b]pyridin-5-yloxy)benzamide], for which the Ki is < 0.01 nM.

Turning to `CC1(C)CCC(CN2CCN(c3ccc(C(=O)NS(=O)(=O)c4ccc(OCC5(F)CCNCC5)c([N+](=O)[O-])c4)c(Oc4cnc5[nH]ccc5c4)c3)CC2)=C(c2ccc(Cl)cc2)C1` [Compound 127, 4-(4-{[2-(4-chlorophenyl)-4,4-dimethylcyclohex-1-en-1-yl]methyl}piperazin-1-yl)-N-({4-[(4-fluoropiperidin-4-yl)methoxy]-3-nitrophenyl}sulfonyl)-2-(1H-pyrrolo[2,3-b]pyridin-5-yloxy)benzamide], the Ki was < 0.01 nM.

With `CC1(C)CCC(CN2CCN(c3ccc(C(=O)NS(=O)(=O)c4ccc(NC5CCN(C6CCOC6)CC5)c([N+](=O)[O-])c4)c(Oc4cnc5[nH]ccc5c4)c3)CC2)=C(c2ccc(Cl)cc2)C1` (stereo not drawn) [Compound 143, 4-(4-{[2-(4-chlorophenyl)-4,4-dimethylcyclohex-1-en-1-yl]methyl}piperazin-1-yl)-N-({3-nitro-4-[(1-tetrahydrofuran-3-ylpiperidin-4-yl)amino]phenyl}sulfonyl)-2-(1H-pyrrolo[2,3-b]pyridin-5-yloxy)benzamide], the inhibition constant (Ki) was < 0.01 nM.

Turning to `CC[C@]1(O)CC[C@@H](CNc2ccc(S(=O)(=O)NC(=O)c3ccc(N4CCN(CC5=C(c6ccc(Cl)cc6)CC(C)(C)CC5)CC4)cc3Oc3cnc4[nH]ccc4c3)cc2[N+](=O)[O-])CC1` [Compound 358, 4-(4-{[2-(4-chlorophenyl)-4,4-dimethylcyclohex-1-en-1-yl]methyl}piperazin-1-yl)-N-[(4-{[(trans-4-ethyl-4-hydroxycyclohexyl)methyl]amino}-3-nitrophenyl)sulfonyl]-2-(1H-pyrrolo[2,3-b]pyridin-5-yloxy)benzamide], the Ki is < 0.01 nM.

As for `CC1(C)CCC(CN2CCN(c3ccc(C(=O)NS(=O)(=O)c4ccc(N[C@H]5CCCNC5=O)c([N+](=O)[O-])c4)c(Oc4cnc5[nH]ccc5c4)c3)CC2)=C(c2ccc(Cl)cc2)C1` [Compound 160, 4-(4-{[2-(4-chlorophenyl)-4,4-dimethylcyclohex-1-en-1-yl]methyl}piperazin-1-yl)-N-[(3-nitro-4-{[(3S)-2-oxopiperidin-3-yl]amino}phenyl)sulfonyl]-2-(1H-pyrrolo[2,3-b]pyridin-5-yloxy)benzamide], the Ki is < 0.01 nM.

For the compound `CC1(C)CCC(CN2CCN(c3ccc(C(=O)NS(=O)(=O)c4ccc(NCC5CN(CC(F)F)CCO5)c([N+](=O)[O-])c4)c(Oc4cnc5[nH]ccc5c4)c3)CC2)=C(c2ccc(Cl)cc2)C1` (stereo not drawn) [Compound 166, 4-(4-{[2-(4-chlorophenyl)-4,4-dimethylcyclohex-1-en-1-yl]methyl}piperazin-1-yl)-N-{[4-({[4-(2,2-difluoroethyl)morpholin-2-yl]methyl}amino)-3-nitrophenyl]sulfonyl}-2-(1H-pyrrolo[2,3-b]pyridin-5-yloxy)benzamide], the Ki is < 0.01 nM.

Consider `CC1(C)CCC(CN2CCN(c3ccc(C(=O)NS(=O)(=O)c4ccc(OC[C@@H]5COCCO5)c([N+](=O)[O-])c4)c(Oc4cnc5[nH]ccc5c4)c3)CC2)=C(c2ccc(Cl)cc2)C1` [Compound 28, 4-(4-{[2-(4-chlorophenyl)-4,4-dimethylcyclohex-1-en-1-yl]methyl}piperazin-1-yl)-N-({4-[(2S)-1,4-dioxan-2-ylmethoxy]-3-nitrophenyl}sulfonyl)-2-(1H-pyrrolo[2,3-b]pyridin-5-yloxy)benzamide], for which the Ki is < 0.01 nM.

Turning to `CC1(C)CCC(CN2CCN(c3ccc(C(=O)NS(=O)(=O)c4ccc(NCc5ccc(OCCN6CCOCC6)cc5)c([N+](=O)[O-])c4)c(Oc4cnc5[nH]ccc5c4)c3)CC2)=C(c2ccc(Cl)cc2)C1` [Compound 198, 4-(4-{[2-(4-chlorophenyl)-4,4-dimethylcyclohex-1-en-1-yl]methyl}piperazin-1-yl)-N-[(4-{[4-(2-morpholin-4-ylethoxy)benzyl]amino}-3-nitrophenyl)sulfonyl]-2-(1H-pyrrolo[2,3-b]pyridin-5-yloxy)benzamide], the Ki is < 0.01 nM.

For the compound `CC1(C)CCC(CN2CCN(c3ccc(C(=O)NS(=O)(=O)c4ccc(NC5CCN(C(C)(C)C)CC5)c([N+](=O)[O-])c4)c(Oc4cnc5[nH]ccc5c4)c3)CC2)=C(c2ccc(Cl)cc2)C1` [Compound 227, N-({4-[(1-tert-butylpiperidin-4-yl)amino]-3-nitrophenyl}sulfonyl)-4-(4-{[2-(4-chlorophenyl)-4,4-dimethylcyclohex-1-en-1-yl]methyl}piperazin-1-yl)-2-(1H-pyrrolo[2,3-b]pyridin-5-yloxy)benzamide], the Ki is < 0.01 nM.

As to `COCCOCCN1CC[C@@H](Nc2ccc(S(=O)(=O)NC(=O)c3ccc(N4CCN(CC5=C(c6ccc(Cl)cc6)CC(C)(C)CC5)CC4)cc3Oc3cnc4[nH]ccc4c3)cc2[N+](=O)[O-])C1` [Compound 254, 4-(4-{[2-(4-chlorophenyl)-4,4-dimethylcyclohex-1-en-1-yl]methyl}piperazin-1-yl)-N-{[4-({(3R)-1-[2-(2-methoxyethoxyl)ethyl]pyrrolidin-3-yl}amino)-3-nitrophenyl]sulfonyl}-2-(1H-pyrrolo[2,3-b]pyridin-5-yloxy)benzamide], the Ki is < 0.01 nM.

For the compound `CC(=O)N1CC[C@@H](Nc2ccc(S(=O)(=O)NC(=O)c3ccc(N4CCN(CC5=C(c6ccc(Cl)cc6)CC(C)(C)CC5)CC4)cc3Oc3cnc4[nH]ccc4c3)cc2[N+](=O)[O-])C1` [Compound 154, N-[(4-{[(3R)-1-acetylpyrrolidin-3-yl]amino}-3-nitrophenyl)sulfonyl]-4-(4-{[2-(4-chlorophenyl)-4,4-dimethylcyclohex-1-en-1-yl]methyl}piperazin-1-yl)-2-(1H-pyrrolo[2,3-b]pyridin-5-yloxy)benzamide], the Ki was < 0.01 nM.

For `CC1(C)CCC(CN2CCN(c3ccc(C(=O)NS(=O)(=O)c4ccc(NCC56CC7CC(C5)C(O)C(C7)C6)c([N+](=O)[O-])c4)c(Oc4cnc5[nH]ccc5c4)c3)CC2)=C(c2ccc(Cl)cc2)C1` (stereo not drawn) [Compound 199, 4-(4-{[2-(4-chlorophenyl)-4,4-dimethylcyclohex-1-en-1-yl]methyl}piperazin-1-yl)-N-{[4-({[(E)-4-hydroxy-1-adamantyl]methyl}amino)-3-nitrophenyl]sulfonyl}-2-(1H-pyrrolo[2,3-b]pyridin-5-yloxy)benzamide], the Ki was < 0.01 nM.
